From patent publication US20220213030A1, “AMINOGUANIDINE HYDRAZONES AS RETROMER STABILIZERS USEFUL FOR TREATING NEUROLOGICAL DISEASES” (OSPEDALE SAN RAFFAELE SRL, priority 2019, published 2022)
“Also recorded” adds a separate entry of the source.

Experiments:
CI-MPR = CI-MPR MFI in MNs of G93A mice; format: in vivo, mouse; conditions: 10 mg/kg, day 100
Text: We next assayed retromer proteins labelling sections of mice sacrificed at day 100 for VPS35 and NeuN. […] Similarly, we observed that VPS26 levels were increased in G93A mice receiving compound 2a (FIG. 11B). We further corroborated our experimental finding observing that compound 2a increased retromer functionality. The cation-independent mannose 6-phosphate receptor (CI-MPR) is a cargo (Arighi et al., 2004) of the retromer complex that is unstable in VPS26 knockout cells (Seaman 2004). We observed a substantial reduction of CI-MPR MFI levels in MNs of vehicle-treated G93A mice when compared with WT litters (FIG. 11C). […] Sortilin encodes for a receptor belonging to the Vps10 family, and it has been involved in Frontotemporal Dementia (FTD), (Lane 2012).
Sections from mice (frozen cryo sections) or glass covers containing cells were washed three times in PBS 1× (Lonza, 5 min each), and incubated in the following blocking mix: PBS 1×/FBS 10% (Invitrogen), BSA 1 mg/mL (Sigma), TritonX100 0.1% (Sigma), for 1 h at room temperature. Antibodies were diluted in blocking mix and incubated at +4° C. overnight according manufacturer's instructions. […]

TNFα = assay: LPS-mediated TNFα release in Raw 264.7 cells (ELISA); format: cell-based, murine; conditions: 10 μM for 1 hour, then LPS 100 ng/ml, 4 hours
Text: We observed that the molecular structure featuring compound 2a is reminiscent of the patented compound CNI-1493 (N,N′-bis [3,5 -bis [1(aminoiminomethyl) hydrazono]ethyl]phenyl]decanediamide tetrahydrochloride (CAS Reg. No. 164301-51-3)), (FIG. 16A). CNI-1493 inhibits macrophage activation in the animal model of Multiple Sclerosis producing a general amelioration of clinical and pathological outcomes of these mice (Martiney, Rajan et al. 1998). […] CNI-1493 suppresses the production of pro-inflammatory cytokines, belonging to the plethora of detrimental signals that accompany neurodegenerative processes in several disorders. […] We followed experimental procedures published by Bianchi and colleagues that describe the ability of CNI-1493 to blunt the production of this cytokine (Bianchi, Bloom et al. 1996). Cells were incubated with CNI-1493 (10 μM) or with compound 2a (10 μM) for 1 hour and then we added the LPS (100 ng/ml) to media. We next collected supernatants (4 hours after the LPS stimulation) form cells for the evaluation of TNFα levels.
Raw 264.7 cells (10^5/well) were treated with compound 2a, CNI-1493 or vehicle for 1 hour then we applied LPS (100 ng/ml) and supernatants were collected after 4 hours. […] Concentrations of TNFα were calculated according to a standard curve and expressed as nanograms per […]. […]

VPS35 = VPS35 (Mus musculus, UniProt Q9EQH3+Q9QZ88); assay: Cycloheximide (CHX) chase assay of VPS35 degradation in Neuro2a; format: cell-based; parameters: endogenous in cells; host or cells: Neuro2a; conditions: 10 μM for 24 hours, then CHX 10 μg/mL up to 8 h
Experimental: Compound 2a increases the stability of the retromer complex in vitro. We further validated this concept by measuring VPS35 degradation rates by a cycloheximide (CHX) chase assay. Neuro2a cells received vehicle or lead 2a (10 μM) for 24 hours, then CHX was added to the medium, and VPS35 levels were measured by western blot. […] As is the case with R55 (Mecozzi, Berman et al. 2014), compound 2a should not influence the transcription levels of CRC genes in Neuro2a cells.
Cycloheximide (CHX) assay was done on Neuro2a cells seeded in 6-well plates and incubated with compound 2a (10 μM) or vehicle for 24 hours. We next added CHX (Sigma) at 10 μg/mL and cells were collected at 0, 2, 4 and 8 hours for the time-course assay of VPS35 levels.

[1] = test system: lysosomes in Neuro2a cells receiving G93A plasmids; assay: Lyso-tracker analysis of lysosomes in G93A-transfected Neuro2a; format: cell-based, mouse; conditions: 10 μM, 24 hours of starvation
Experimental: We next determined whether a reduction of VPS35 levels in Neuro2a cells could affect lysosomal homeostasis, mimicking what we and others observed in the ALS mouse model (Cheng 2018). We transfected Neuro2a cells with plasmids encoding the Sh56 RNAi to downregulate VPS35. After 24 hours of starvation, we analyzed the lysosomes using the Lyso-tracker. We observed an enlarged and abnormal distribution of lysosomes in cells with VPS35 interference by Sh56 (FIG. 15A-C). […] We asked whether G93A plasmids would also result in similar lysosomal alterations. We transfected Neuro2a cells with plasmids encoding G93A, with or without compound 2a (10 μM). After 24 hours of starvation, we monitored the lysosomes in such cells with the Lyso-tracker.

N=C(N)NN=Cc1cccc(C=NNC(=N)N)c1 [Compound 2a, 1,3-Bis-amino guanidine phenyl hydrazone]
CI-MPR MFI levels (CI-MPR): significantly increased
TNFα levels in supernatants (TNFα): did not show any reduction of TNFα; also recorded: did not inhibit TNFα release
VPS35 degradation after CHX (VPS35): protected VPS35 from degradation
enlarged lysosomes (Lyso-tracker-covered areas) [1]: significantly reverted this phenotype
